Reference: publication PMC3762611 (International Journal of Tryptophan Research : IJTR, 2013)

Molecular target: indoleamine 2,3-dioxygenase 1 (IDO1) (Homo sapiens, UniProt P14902)
Type: biochemical

Sequence of indoleamine 2,3-dioxygenase 1 (IDO1) (P14902 whole entry): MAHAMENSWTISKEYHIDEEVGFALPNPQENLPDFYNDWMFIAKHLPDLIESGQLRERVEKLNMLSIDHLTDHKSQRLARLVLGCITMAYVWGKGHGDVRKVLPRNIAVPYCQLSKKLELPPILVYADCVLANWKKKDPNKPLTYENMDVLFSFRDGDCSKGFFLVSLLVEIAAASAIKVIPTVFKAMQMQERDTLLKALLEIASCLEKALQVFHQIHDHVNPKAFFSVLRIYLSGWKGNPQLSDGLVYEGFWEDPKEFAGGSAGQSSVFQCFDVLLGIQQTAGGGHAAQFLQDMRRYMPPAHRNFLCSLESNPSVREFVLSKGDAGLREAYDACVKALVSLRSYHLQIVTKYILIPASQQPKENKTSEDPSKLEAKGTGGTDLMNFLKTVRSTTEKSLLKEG

CC1(C)CCC2=C(O1)c1ccccc1C(=O)C2=O [β-lapachone, 3,4-dihydro-2,2-dimethyl-2H-naphthol[1,2-b]pyran-5,6-dione]
Ki: 450 nM
